From US20080193549A1, “Hoki Fish Liver Oil, Fractions Thereof And Therapeutic Uses” (Otago Innovation Limited, priority 2004, published 2008)

Legend:
[1] = system: activated neutrophils; assay: neutrophil activation: superoxide production (WST-1); type: cell-based, rat; conditions: 100 μg/ml, positive control
Experimental: The in vitro anti-inflammatory screening assay used in this investigation involved determining the effect of a test material on activated neutrophils. The production of superoxide was measured. Neutrophils were prepared from fresh rat blood and diluted with phosphate-buffered saline (PBS) and adjusted to a concentration of 10^7 cells per ml. The purity of the preparation was 95% or higher. The test sample was pre-incubated with a cell suspension at 37° C. for 15 minutes in wells of a 96 well culture plate. Then catalase and WST-1 dye reagent were added to each incubate (including controls). Each was then activated with phorbol myristate acetate (100 ng/ml). After incubation for 1 hr at 37° C. the reaction was stopped and the level of superoxide produced from oxidation of the dye WST by the superoxide in each well of the plate determined calorimetrically at 450 nm. As a positive control, triplicate wells with aspirin (100 μg/ml) were assayed. Each sample was assessed at three different concentrations.

[2] = system: rat monocytes; assay: macrophage assay: conversion of monocytes to macrophages (nitric oxide, Griess); type: cell-based
Experimental: A diluent composed of RPMI culture media containing 10% foetal calf serum (FCS) was prepared. A density gradient barrier was prepared by mixing a working solution [Optiprep: diluent, 2:1, v/v] with further diluent in a ratio of 2.3 to 5.0. The density of 1.076 g/ml is required for isolating rat monocytes. Freshly isolated rat blood was cooled to 4° C. 5 ml of the density gradient was layered over 5 ml of the blood and 5 ml of diluent was then layered gently on top. After centrifuging at 700 g for 30 min at 4° C., the monocytes were collected from the top of the 1.076 g/ml layer and diluted with 2 volumes of diluent and the pellet was gently resuspended in Hanks Balanced Salt Solution (HBSS). The cell concentration and the relative purity were determined. 500 μl Aliquots of cell suspension were used. […] 10 μl of LPS (5 mg/ml) was then added to all tubes, except the control, to give a final concentration of LPS of approximately 20 μg/ml. The cells were incubated overnight at 37° C. and then centrifuged at 12,000 g (4° C.) for 5 min. The supernatants were collected and aliquots of these were then assayed in duplicate for the concentration of nitric oxide (NO) by the Griess reagent procedure using a kit (Sigma, St Louis, USA).

Compound | Absorbance units (superoxide production) [1] [Absorbance units] | inhibition at 100 µg/mL ([1]; Rattus norvegicus, Neutrophil) [%] | % Inhibition of conversion of monocytes to macrophages (NO production) ([2]; 2.5 μM) [%] | Absorbance units (nitric oxide production) ([2]; 2.5 μM) [Absorbance units] | % Inhibition of conversion of monocytes to macrophages (NO production) ([2]; 5 μM) [%] | Absorbance units (nitric oxide production) ([2]; 5 μM) [Absorbance units]
CC(=O)Oc1ccccc1C(=O)O [Aspirin, aspirin] | 0.3095 | 46.9 | – | – | – | –
CNC(=N)NCCC[C@H](N)C(=O)O [L-NMMA] | – | – | 44.94 | 1.568 | 75.07 | 0.710
